Where two headings read alike, the source gives them in different places.
Key:
Assay type in all cases: binding
[1] = target: T1, HeLa cell extract proteins (Homo sapiens, UniProt P13797)
T1 construct: endogenous in cells; host or cells: HeLa cell extract
T1 sequence (P13797 1-630): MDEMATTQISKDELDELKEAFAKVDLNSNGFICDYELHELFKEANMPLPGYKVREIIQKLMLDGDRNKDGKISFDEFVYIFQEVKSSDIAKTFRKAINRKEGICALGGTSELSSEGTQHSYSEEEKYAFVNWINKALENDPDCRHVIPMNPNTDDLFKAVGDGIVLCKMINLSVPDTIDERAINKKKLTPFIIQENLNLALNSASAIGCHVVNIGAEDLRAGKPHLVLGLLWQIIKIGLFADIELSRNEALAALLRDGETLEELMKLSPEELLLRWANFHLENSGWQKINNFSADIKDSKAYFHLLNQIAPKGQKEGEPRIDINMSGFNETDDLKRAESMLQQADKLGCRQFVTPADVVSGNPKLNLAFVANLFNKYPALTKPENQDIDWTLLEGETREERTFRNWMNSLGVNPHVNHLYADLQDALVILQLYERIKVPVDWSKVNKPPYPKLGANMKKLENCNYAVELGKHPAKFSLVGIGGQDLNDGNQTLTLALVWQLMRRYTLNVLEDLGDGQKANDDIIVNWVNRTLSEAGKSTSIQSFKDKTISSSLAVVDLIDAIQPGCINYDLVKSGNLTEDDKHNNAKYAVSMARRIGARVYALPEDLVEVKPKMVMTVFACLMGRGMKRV

[2] = target: T2, HeLa cell extract proteins (Homo sapiens, UniProt P14174)
T2 construct: endogenous in cells; host or cells: HeLa cell extract
T2 sequence (P14174 1-115): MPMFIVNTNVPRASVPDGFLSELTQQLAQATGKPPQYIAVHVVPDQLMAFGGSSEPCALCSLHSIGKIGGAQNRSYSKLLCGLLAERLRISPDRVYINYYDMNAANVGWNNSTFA

[3] = target: T3, HeLa cell extract proteins (Homo sapiens, UniProt P62888)
T3 construct: endogenous in cells; host or cells: HeLa cell extract

[4] = target: T4, HeLa cell extract proteins (Homo sapiens, UniProt Q13616)
T4 construct: endogenous in cells; host or cells: HeLa cell extract
T4 sequence (Q13616 whole entry): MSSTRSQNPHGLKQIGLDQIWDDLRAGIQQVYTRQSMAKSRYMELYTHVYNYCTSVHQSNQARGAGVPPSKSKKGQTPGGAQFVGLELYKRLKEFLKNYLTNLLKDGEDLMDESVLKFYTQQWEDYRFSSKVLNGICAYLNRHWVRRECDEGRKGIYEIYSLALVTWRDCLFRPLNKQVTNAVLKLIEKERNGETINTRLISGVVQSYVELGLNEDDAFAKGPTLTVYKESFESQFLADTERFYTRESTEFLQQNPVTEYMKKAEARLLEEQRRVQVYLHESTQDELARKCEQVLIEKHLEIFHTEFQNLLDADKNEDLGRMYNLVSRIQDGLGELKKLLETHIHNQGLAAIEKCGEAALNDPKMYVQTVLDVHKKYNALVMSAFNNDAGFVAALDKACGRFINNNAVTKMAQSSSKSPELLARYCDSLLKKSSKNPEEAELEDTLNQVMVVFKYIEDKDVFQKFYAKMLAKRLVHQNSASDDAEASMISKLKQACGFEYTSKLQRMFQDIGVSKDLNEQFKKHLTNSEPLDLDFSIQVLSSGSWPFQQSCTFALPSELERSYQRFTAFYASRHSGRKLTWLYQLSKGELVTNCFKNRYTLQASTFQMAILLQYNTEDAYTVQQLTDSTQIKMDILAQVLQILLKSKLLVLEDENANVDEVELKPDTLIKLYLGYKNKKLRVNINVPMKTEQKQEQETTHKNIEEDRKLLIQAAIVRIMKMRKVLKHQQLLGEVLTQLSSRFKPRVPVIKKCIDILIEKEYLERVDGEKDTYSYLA

[5] = target: T5, HeLa cell extract proteins (Homo sapiens, UniProt Q92499)
T5 construct: endogenous in cells; host or cells: HeLa cell extract
T5 sequence (Q92499 1-740): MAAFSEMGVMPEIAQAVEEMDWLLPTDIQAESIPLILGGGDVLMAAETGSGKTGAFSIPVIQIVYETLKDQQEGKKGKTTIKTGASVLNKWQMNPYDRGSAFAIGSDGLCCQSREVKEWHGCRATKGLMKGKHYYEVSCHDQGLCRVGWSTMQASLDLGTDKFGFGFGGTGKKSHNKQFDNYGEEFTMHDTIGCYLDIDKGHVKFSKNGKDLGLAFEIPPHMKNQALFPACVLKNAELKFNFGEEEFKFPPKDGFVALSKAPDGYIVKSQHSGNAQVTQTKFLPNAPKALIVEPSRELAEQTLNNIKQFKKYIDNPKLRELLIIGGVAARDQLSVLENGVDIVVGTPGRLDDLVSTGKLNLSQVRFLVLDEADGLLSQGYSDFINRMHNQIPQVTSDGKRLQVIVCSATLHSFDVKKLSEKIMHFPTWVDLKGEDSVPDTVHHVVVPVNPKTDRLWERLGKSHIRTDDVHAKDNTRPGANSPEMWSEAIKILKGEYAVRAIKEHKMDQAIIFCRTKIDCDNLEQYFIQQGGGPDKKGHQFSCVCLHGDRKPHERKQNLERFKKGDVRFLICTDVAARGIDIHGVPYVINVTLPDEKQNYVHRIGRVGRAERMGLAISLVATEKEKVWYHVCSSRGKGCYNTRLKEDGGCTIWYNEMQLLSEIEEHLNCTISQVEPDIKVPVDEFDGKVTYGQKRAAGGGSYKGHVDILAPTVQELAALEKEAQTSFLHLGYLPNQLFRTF

[6] = target: T6, HeLa cell extract proteins (Homo sapiens, UniProt P00390); details: protein GSR; HeLa
T6 construct: endogenous in cells; host or cells: HeLa cell extract
T6 sequence (P00390 44-522): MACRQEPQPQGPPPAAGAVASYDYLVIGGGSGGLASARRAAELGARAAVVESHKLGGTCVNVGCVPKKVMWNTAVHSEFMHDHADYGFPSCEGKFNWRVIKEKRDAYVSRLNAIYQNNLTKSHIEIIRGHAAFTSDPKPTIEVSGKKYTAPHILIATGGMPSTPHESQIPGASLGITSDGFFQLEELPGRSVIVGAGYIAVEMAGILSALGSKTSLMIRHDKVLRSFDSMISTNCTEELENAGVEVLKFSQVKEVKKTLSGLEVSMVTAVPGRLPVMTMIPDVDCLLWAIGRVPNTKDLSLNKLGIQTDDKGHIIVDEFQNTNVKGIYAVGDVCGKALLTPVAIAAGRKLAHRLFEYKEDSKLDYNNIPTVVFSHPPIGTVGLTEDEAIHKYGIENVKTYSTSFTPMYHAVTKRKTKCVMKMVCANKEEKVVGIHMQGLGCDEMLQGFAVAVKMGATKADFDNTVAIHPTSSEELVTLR

[7] = target: T7, HeLa cell extract proteins (Homo sapiens, UniProt P46782); details: protein RPS5; HeLa
T7 construct: endogenous in cells; host or cells: HeLa cell extract

[8] = target: T8, HeLa cell extract proteins (Homo sapiens, UniProt Q9Y316); details: HeLa; protein MEMO1
T8 construct: endogenous in cells; host or cells: HeLa cell extract
T8 sequence (Q9Y316 1-297): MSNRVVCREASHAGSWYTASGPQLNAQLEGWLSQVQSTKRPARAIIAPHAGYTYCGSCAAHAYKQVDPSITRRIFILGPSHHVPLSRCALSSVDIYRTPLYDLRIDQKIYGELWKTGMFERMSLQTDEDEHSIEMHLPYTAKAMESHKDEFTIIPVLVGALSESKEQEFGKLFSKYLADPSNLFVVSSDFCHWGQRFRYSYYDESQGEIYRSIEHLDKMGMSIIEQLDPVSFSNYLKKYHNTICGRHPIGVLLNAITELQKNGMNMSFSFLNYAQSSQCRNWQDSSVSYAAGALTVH

[9] = HeLa, protein LOC284889 (MACROPHAGE MIGRATION INHIBITORY FACTOR)

Structure (SMILES) | fold changes relative to vehicle control ([1]; HeLa, protein PLS3) | fold changes relative to vehicle control [2, 9] | fold changes relative to vehicle control ([3]; protein RPL30, HeLa) | fold changes relative to vehicle control ([4]; HeLa, protein CUL1) | fold changes relative to vehicle control ([5]; HeLa, captured protein DDX1) | fold changes relative to vehicle control [6] | fold changes relative to vehicle control [7] | fold changes relative to vehicle control [8] | further results
Nc1nc2c(c(=O)[nH]1)N(C=O)C(CNc1ccc(C(=O)N[C@@H](CCC(=O)O)C(=O)O)cc1)CN2 (some centres unmarked) [LEU, leucovorin] | 0.93 | 1.32 | 0.86 | 0.98 | 1.15 | – | – | – | –
Nc1nc2[nH]cc(CCc3ccc(C(=O)N[C@@H](CCC(=O)O)C(=O)O)cc3)c2c(=O)[nH]1 [PTX, pemetrexed] | – | – | – | – | – | – | – | – | fold changes relative to vehicle control [1]: 1.18; fold changes relative to vehicle control [2]: 1.29; fold changes relative to vehicle control [3]: 0.89; fold changes relative to vehicle control [4]: 1.03; fold changes relative to vehicle control [5]: 1.14
CCCCCCOc1ccc(Cc2cnc(N)nc2N)cc1 [compound 1] | – | – | – | – | – | 0.94 | 1.04 | 0.97 | –
CCCCCCOc1cccc(Cc2cnc(N)nc2N)c1 [compound 2] | – | – | – | – | – | 1.15 | 1.1 | 0.87 | –
Nc1nc2cccc(-c3ccccc3)c2n1Cc1ccc(Cl)c(Cl)c1 [compound 3] | – | – | – | – | – | 1 | 1.01 | 1 | –
NCCOCCOCC(=O)Nc1nc2ncc(CNc3ccc(C(=O)NC(CCC(=O)O)C(=O)O)cc3)nc2c(=O)[nH]1 (centres unmarked) [compound 6] | 1.31 | 1.26 | 1 | 1.22 | 1.12 | – | – | – | –
NCCCNc1ccc(C(=O)NC(CCC(=O)O)C(=O)O)cc1 (centres unmarked) [compound 7] | 1 | 1.25 | 0.92 | 1.02 | 1.11 | – | – | – | –
